# Experimental data reported in patent US20150307520A1, “NOVEL HETEROARYL AND HETEROCYCLE COMPOUNDS, COMPOSITIONS AND METHODS THEREOF” (HUTCHISON MEDIPHARMA LIMITED, priority 2012, published 2015).
# Legend:
# Format in all cases: biochemical
# p110β/p85α = p110β/p85α (Homo sapiens, UniProt P42338); experiment: Transcreener KINASE Assay, kinase inhibition of p110β/p85α; conditions: for PI3Kβ IH % @ 1 uM: 1 uM test compound; for IC50: read-out: PI3Kβ IC50
# Method: (§1) PI3K kinases including p110α/p85α, p110δ/p85α and p110γ are purchased from Invitrogen, and p110β/p85α is from Millipore.
# (§2) Primary screening data and IC50 values are measured using Transcreener™ KINASE Assay (Bellbrook, Catalog #3003-10K). […] It is a universal, homogenous, high throughput screening (HTS) technology using a far-red, competitive fluorescence polarization immunoassay based on the detection of ADP to monitor the activity of enzymes that catalyze group transfer reactions. Briefly, the Transcreener KINASE Assay is designed as a simple two-part, endpoint assay.
# (§3) In the first step, the 25 ul kinase reaction is performed by preparing a reaction mixture containing 5 ul test compound (2% DMSO final concentration), 10 ul kinase, buffer (50 mM HEPES, 100 mM NaCl, 1 mM EGTA, 0.03% CHAPS, 3 mM MgCl2, and freshly supplemented 1 mM DTT), and 10 ul 30 uM PIP2/10 uM ATP. The plate is sealed and incubated for 80 min at room temperature. Next, 25 ul ADP detection mix is added per well. The plate is sealed again and incubated for 60 min at room temperature, and then measure fluorescence polarization by Tecan Infinite F500 Reader.
# (§4) Data is analyzed and IC50s are generated using the add-in software for Microsoft Excel, Xlfit™ (version 2.0). IH %=(ADP amount under 2% DMSO-ADP amount under test compound)/ADP amount under 2% DMSO.
# p110δ/p85α = p110δ/p85α (Homo sapiens, UniProt O00329); experiment: Transcreener KINASE Assay, kinase inhibition of p110δ/p85α; conditions: for PI3Kδ IH % @ 1 uM: 1 uM test compound; for IC50: read-out: PI3Kδ IC50
# p110δ/p85α, sequence (O00329 whole entry): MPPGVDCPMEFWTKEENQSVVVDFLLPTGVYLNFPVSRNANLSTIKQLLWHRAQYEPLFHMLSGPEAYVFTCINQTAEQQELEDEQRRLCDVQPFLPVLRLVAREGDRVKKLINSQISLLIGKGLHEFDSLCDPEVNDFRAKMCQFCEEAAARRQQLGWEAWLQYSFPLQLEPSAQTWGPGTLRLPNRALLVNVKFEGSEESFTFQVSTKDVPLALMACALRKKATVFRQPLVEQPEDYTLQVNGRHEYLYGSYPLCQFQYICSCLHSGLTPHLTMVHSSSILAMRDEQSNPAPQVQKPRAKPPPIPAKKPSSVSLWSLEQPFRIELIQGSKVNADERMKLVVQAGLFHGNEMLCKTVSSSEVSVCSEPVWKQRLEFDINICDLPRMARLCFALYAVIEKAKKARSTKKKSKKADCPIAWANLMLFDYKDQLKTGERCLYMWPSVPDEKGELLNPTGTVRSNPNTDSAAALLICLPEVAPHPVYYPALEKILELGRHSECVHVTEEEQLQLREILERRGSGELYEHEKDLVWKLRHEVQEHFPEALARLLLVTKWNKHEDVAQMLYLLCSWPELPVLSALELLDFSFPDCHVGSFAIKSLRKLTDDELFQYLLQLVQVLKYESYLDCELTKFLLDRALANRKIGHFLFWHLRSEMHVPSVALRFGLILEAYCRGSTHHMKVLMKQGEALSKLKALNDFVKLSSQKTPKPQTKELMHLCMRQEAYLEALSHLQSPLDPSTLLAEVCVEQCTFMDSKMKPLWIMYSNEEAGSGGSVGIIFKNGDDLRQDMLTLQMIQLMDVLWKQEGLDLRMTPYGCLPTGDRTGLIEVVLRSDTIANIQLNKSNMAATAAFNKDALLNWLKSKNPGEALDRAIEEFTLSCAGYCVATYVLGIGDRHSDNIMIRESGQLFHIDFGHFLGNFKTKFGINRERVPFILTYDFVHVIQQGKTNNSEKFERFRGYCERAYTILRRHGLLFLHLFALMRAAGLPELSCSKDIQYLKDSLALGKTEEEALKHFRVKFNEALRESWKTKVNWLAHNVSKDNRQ
# p110δ/p85α, sequence (P27986 whole entry partner): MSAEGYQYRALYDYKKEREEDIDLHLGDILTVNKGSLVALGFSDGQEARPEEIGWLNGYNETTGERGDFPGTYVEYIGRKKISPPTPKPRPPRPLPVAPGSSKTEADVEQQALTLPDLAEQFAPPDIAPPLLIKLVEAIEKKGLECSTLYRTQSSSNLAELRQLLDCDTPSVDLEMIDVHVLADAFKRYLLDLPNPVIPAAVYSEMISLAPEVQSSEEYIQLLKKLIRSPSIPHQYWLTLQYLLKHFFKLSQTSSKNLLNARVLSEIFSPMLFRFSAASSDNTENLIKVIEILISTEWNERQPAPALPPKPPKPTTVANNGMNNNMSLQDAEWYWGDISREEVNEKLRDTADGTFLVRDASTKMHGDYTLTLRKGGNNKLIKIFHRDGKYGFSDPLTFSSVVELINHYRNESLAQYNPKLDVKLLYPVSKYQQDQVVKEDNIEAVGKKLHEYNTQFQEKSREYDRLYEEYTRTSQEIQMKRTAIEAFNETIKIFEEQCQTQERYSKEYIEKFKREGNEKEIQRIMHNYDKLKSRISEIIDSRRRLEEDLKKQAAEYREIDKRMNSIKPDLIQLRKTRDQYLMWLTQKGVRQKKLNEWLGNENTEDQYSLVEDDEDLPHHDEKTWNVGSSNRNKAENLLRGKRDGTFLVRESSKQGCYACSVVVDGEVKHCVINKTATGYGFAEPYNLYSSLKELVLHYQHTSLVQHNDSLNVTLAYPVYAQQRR
# Method: as §1, §2, §3, §4
# p110γ = p110γ (Homo sapiens, UniProt P48736); experiment: Transcreener KINASE Assay, kinase inhibition of p110γ; conditions: for PI3Kγ IH % @ 1 uM: 1 uM test compound; for IC50: read-out: PI3Kγ IC50
# p110γ, sequence (P48736 whole entry): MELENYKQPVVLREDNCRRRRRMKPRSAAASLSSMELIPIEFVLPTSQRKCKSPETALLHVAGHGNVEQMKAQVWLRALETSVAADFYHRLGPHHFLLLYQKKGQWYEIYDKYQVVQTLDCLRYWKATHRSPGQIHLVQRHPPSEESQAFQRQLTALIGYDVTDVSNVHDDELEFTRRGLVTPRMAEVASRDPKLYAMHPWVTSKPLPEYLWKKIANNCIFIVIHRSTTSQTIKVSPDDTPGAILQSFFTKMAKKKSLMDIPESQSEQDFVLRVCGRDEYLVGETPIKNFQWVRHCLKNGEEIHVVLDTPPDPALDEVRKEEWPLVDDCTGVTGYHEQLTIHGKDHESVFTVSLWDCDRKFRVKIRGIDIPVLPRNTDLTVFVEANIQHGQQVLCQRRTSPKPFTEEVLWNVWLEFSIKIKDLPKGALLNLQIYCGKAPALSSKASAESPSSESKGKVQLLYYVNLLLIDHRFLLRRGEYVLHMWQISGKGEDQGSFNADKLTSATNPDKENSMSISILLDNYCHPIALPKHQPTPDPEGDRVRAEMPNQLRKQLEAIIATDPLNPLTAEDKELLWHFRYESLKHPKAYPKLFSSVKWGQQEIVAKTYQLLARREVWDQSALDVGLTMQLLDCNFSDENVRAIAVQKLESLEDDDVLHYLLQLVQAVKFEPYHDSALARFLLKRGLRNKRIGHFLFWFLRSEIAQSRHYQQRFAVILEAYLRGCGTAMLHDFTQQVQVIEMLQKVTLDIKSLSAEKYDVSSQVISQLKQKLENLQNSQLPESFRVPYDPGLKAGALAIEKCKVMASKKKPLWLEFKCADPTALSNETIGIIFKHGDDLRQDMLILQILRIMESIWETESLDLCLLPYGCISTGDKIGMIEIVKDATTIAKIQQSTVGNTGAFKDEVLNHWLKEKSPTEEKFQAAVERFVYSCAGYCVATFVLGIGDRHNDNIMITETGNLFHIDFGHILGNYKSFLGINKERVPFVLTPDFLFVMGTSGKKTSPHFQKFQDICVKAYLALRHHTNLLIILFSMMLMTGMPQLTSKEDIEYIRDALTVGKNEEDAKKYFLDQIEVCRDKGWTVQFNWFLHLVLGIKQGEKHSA
# Method: Kinase Inhibition assays of p110α/p85α, p110β/p85α, p110δ/p85α and p110γ PI3K kinases including p110α/p85α, p110δ/p85α and p110γ are purchased from Invitrogen, and p110β/p85α is from Millipore. Primary screening data and IC50 values are measured using Transcreener™ KINASE Assay (Bellbrook, Catalog #3003-10K). […] It is a universal, homogenous, high throughput screening (HTS) technology using a far-red, competitive fluorescence polarization immunoassay based on the detection of ADP to monitor the activity of enzymes that catalyze group transfer reactions. Briefly, the Transcreener KINASE Assay is designed as a simple two-part, endpoint assay. […] The plate is sealed and incubated for 80 min at room temperature. Next, 25 ul ADP detection mix is added per well. The plate is sealed again and incubated for 60 min at room temperature, and then measure fluorescence polarization by Tecan Infinite F500 Reader. Data is analyzed and IC50s are generated using the add-in software for Microsoft Excel, Xlfit™ (version 2.0).
# p110β/p85α, sequence (P42338 whole entry): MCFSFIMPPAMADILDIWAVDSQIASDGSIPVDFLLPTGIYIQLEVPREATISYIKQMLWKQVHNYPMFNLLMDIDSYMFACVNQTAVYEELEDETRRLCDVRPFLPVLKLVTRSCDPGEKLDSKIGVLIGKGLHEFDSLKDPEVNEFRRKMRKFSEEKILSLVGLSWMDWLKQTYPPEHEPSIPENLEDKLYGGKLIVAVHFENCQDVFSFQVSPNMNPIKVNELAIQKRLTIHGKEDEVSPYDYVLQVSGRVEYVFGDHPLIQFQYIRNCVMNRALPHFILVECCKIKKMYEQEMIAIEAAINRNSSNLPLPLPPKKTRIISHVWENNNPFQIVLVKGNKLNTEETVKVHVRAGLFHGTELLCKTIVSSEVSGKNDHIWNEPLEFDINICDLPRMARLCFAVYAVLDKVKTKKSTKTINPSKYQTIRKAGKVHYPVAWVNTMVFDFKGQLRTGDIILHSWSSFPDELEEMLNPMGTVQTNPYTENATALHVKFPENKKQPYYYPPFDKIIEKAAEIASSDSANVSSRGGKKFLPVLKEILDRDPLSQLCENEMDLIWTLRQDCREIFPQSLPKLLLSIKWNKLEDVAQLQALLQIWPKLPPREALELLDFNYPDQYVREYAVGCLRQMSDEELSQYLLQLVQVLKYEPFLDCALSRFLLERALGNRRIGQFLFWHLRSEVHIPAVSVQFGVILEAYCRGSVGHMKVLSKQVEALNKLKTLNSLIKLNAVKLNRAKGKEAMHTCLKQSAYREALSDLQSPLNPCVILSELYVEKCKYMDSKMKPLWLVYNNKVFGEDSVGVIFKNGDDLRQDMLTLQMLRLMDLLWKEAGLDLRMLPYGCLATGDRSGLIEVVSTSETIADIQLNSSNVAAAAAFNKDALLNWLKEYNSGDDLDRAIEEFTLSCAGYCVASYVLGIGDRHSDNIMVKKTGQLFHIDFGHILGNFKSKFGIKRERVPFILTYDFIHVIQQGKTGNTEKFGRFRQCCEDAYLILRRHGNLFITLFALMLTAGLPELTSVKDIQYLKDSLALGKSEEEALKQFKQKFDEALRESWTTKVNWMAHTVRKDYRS
# p110β/p85α, sequence (P27986 2-724 partner): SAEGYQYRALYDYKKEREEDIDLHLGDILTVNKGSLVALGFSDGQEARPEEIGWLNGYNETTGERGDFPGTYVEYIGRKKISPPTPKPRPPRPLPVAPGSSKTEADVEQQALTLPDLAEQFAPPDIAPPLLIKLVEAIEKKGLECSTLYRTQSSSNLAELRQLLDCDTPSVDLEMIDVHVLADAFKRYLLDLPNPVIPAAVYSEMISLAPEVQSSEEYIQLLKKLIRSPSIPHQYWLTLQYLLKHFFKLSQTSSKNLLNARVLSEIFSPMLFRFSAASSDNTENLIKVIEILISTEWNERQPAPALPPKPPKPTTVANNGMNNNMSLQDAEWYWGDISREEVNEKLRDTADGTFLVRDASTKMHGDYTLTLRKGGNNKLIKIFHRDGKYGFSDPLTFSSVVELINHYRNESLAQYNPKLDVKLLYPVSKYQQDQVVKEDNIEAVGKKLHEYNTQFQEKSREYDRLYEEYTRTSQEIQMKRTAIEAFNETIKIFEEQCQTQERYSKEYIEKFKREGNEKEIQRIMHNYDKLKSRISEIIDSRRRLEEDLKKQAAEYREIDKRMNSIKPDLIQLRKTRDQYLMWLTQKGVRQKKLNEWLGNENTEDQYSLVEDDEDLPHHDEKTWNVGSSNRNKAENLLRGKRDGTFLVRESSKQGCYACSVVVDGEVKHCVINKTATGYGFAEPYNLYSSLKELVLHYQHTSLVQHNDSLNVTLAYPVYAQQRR
Compound,PI3Kβ IH % @ 1 uM (p110β/p85α) [%],IC50 (p110β/p85α) [nM],PI3Kδ IH % @ 1 uM (p110δ/p85α) [%],IC50 (p110δ/p85α) [nM],PI3Kγ IH % @ 1 uM (p110γ) [%],IC50 (p110γ) [nM]
"C[C@H](Nc1nc(N)ncc1C#N)c1cc2ncc(Cl)n2c(=O)n1-c1ccccc1 (single isomer, unassigned) [Compound 385]",83.3,75,>100,4,95.9,10
"C[S@+]([O-])c1c[nH]c2ncnc(N3CCC[C@H]3c3nn4ccc(Cl)c4c(=O)n3-c3cccc(F)c3)c12 (single isomer, unassigned) [Compound 386]",76.8,322,>100,3,95.0,21
"C[S+]([O-])c1c[nH]c2ncnc(N3CCC[C@H]3c3nn4ccc(Cl)c4c(=O)n3-c3cccc(F)c3)c12 (single isomer, unassigned) [Compound 387]",39.6,,98.2,7,>100,9
"C[S+]([O-])c1c[nH]c2ncnc(N3CCC[C@H]3c3nn4ccc(Cl)c4c(=O)n3-c3ccccn3)c12 (single isomer, unassigned) [Compound 389]",32.7,,95.4,7,87.9,46
"CC(Nc1nc(N)nc2c1C(=O)CCN2)c1cn2ccc(F)c2c(=O)n1-c1ccccc1 (single isomer, unassigned) [Compound 407]",>100,,94.9,,>100,
"CC(=O)c1cnc(N)nc1N[C@H](C)c1cc2ncc(Cl)n2c(=O)n1-c1ccccc1 (single isomer, unassigned) [Compound 448]",55.9,,98.8,17,82.3,105
"CC(Nc1nc(N)ncc1C#N)c1cn2ccc(F)c2c(=O)n1-c1ccccc1 (single isomer, unassigned) [Compound 449]",87.2,,96.1,,97.8,
"CC(Nc1ncnc2[nH]cc(F)c12)c1cc2ncc(Cl)n2c(=O)n1-c1ccccc1 (single isomer, unassigned) [Compound 450]",76.9,,99.3,,98.6,
"CC(Nc1ncnc2[nH]cc(F)c12)c1cc2ncc(Cl)n2c(=O)n1-c1ccccc1 (single isomer, unassigned) [Compound 451]",4.2,,96.4,,40.5,
"CC(=O)c1cnc(N)nc1NC(C)c1cn2ccc(F)c2c(=O)n1-c1ccccc1 (single isomer, unassigned) [Compound 452]",97.0,,>100,,92.5,
"CC(=O)c1cnc(N)nc1N1CC(C)(C)C1c1nn2ccc(Cl)c2c(=O)n1-c1ccccc1 (stereo in doubt) [Compound 484, (R)-2-(1-(5-acetyl-2-aminopyrimidin-4-yl)-3,3-dimethylazetidin-2-yl)-5-chloro-3-phenylpyrrolo[2,1-f][1,2,4]triazin-4(3H)-one]",88.3,22,>100,0.1,>100,6
N#Cc1c(N)ncnc1N1CC[C@H]1c1nn2cccc2c(=O)n1-c1ccccc1 [Compound 8],33.3,,76.2,272,40.2,
Nc1ncnc(N2CCC[C@H]2c2nn3ccc(Cl)c3c(=O)n2-c2ccccc2)c1Cl [Compound 27],82.6,100,>100,3,92.7,51
COc1cccc(-n2c([C@@H]3CCN3c3ncnc4[nH]cnc34)nn3ccc(Cl)c3c2=O)c1 [Compound 33],−3.1,,71.9,212,63.7,
N#Cc1c[nH]c2ncnc(N3CC[C@H]3c3nn4ccc(Cl)c4c(=O)n3-c3ccc(F)cc3)c12 [Compound 37],30.6,,81.2,,83.3,89
N#Cc1cccc(-n2c([C@@H]3CCCN3c3ncnc4[nH]cc(C#N)c34)nn3ccc(Cl)c3c2=O)c1 [Compound 39],20.7,,94.2,,16.5,

Compound,PI3Kβ IH % @ 1 uM (p110β/p85α) [%],IC50 (p110β/p85α) [nM],PI3Kδ IH % @ 1 uM (p110δ/p85α) [%],IC50 (p110δ/p85α) [nM],PI3Kγ IH % @ 1 uM (p110γ) [%],IC50 (p110γ) [nM]
N#Cc1cccc(-n2c([C@@H]3CCCN3c3ncnc4[nH]cnc34)nn3ccc(Cl)c3c2=O)c1 [Compound 40],19.8,,74.0,,6.5,
O=c1c2c(Cl)ccn2nc([C@@H]2CCCN2c2ncnc3[nH]cnc23)n1-c1ccc(F)cc1 [Compound 41],80.2,66,91.7,6,>100,21
Cc1ccn2nc([C@@H]3CCCN3c3ncnc(N)c3Cl)n(-c3ccccc3)c(=O)c12 [Compound 45],71.9,795,100,,80.9,172
N#Cc1c[nH]c2ncnc(N3CC[C@H]3c3nn4ccc(F)c4c(=O)n3-c3ccccc3)c12 [Compound 46],33.8,,>100,14,68.1,
O=c1c2c(Cl)ccn2nc([C@@H]2C[C@@H](F)CN2c2ncnc3[nH]cnc23)n1-c1ccccc1 [Compound 47],47.3,,>100,26,84.7,152
N#Cc1c[nH]c2ncnc(N3C[C@H](F)C[C@H]3c3nn4ccc(Cl)c4c(=O)n3-c3ccccc3)c12 [Compound 48],69.7,501,98.4,4,86.1,58
Nc1nc(N2CCC[C@H]2c2nn3ccc(Cl)c3c(=O)n2-c2ccccc2)ncc1C(F)(F)F [Compound 49],−4.8,,8.4,,8.9,
CC(Nc1ncnc2[nH]cnc12)c1cn2ccc(Cl)c2c(=O)n1-c1ccccc1 (centres unmarked) [Compound 87],90.8,49,,,>100,8
Nc1ncc(C(=O)C(F)(F)F)c(N2CC[C@H]2c2nn3ccc(Cl)c3c(=O)n2-c2ccccc2)n1 [Compound 325],,,,524,,
"Nc1nc(N2CC[C@H]2c2nn3ccc(Cl)c3c(=O)n2-c2ccccc2)c2cccn2n1 [Compound 329, (S)-2-(1-(2-aminopyrrolo[2,1-f][1,2,4]triazin-4-yl)azetidin-2-yl)-5-chloro-3-phenyl-pyrrolo[2,1-f][1,2,4]triazin-4(3H)-one]",,,50.3,,91.6,227
N#Cc1cnc(N)nc1N1CCC1c1nn2ccc(Cl)c2c(=O)n1CC1CC1 (centres unmarked) [Compound 373],37.4,,,,,
C[C@H]1CN(c2ncnc(N)c2C#N)C1c1nn2ccc(Cl)c2c(=O)n1-c1ccccc1 (some centres unmarked) [Compound 494],55.70,,,,93.5,
CC(=O)c1cnc(N)nc1N1CC[C@H]1c1nn2ccc(Cl)c2c(=O)n1-c1cc(F)cc(F)c1 [Compound 495],,,99.5,,>100,
CC(=O)c1cnc(N)nc1N1CC[C@H]1c1nn2ccc(C#N)c2c(=O)n1-c1ccccc1 [Compound 498],,,>100,21,>100,13
CC(=O)c1c(N)ncnc1N1C[C@H](C)[C@H]1c1nn2ccc(Cl)c2c(=O)n1-c1ccccc1 [Compound 509],,,>100,,>100,
CC(=O)c1cnc(N)nc1N1C[C@H](C)[C@H]1c1nn2ccc(Cl)c2c(=O)n1-c1cc(F)cc(F)c1 [Compound 518],,,>100,,>100,
